# Source: ChEMBL document CHEMBL1130358, “DIARYLETHER INHIBITORS OF FARNESYL-PROTEIN TRANSFERASE” (Bioorg Med Chem Lett, 1997)
# What was measured:
# [1] = target: Protein farnesyltransferase (Bos taurus, UniProt P29702+P49355); assay: Inhibition of the Farnesyltransferase catalyzed incorporation of [3H]FPP into recombinant Ha-Ras by 50% in bovine brain at a concentration of ca. 1 nM.; type: tissue-based
# [2] = test system: Rat1; assay: 90% reduction in v-raf (Raf1a1) transformed RAT1 cell colony size and number in soft agar assay; type: functional; details: Rattus norvegicus
# [3] = test system: Rat1; assay: 90% reduction in v-Ha-ras (Ras2B) transformed RAT1 cell colony size and number in soft agar assay; type: functional; details: Rattus norvegicus
# [4] = target: Geranylgeranyl transferase type I (Bos taurus, UniProt P29702+Q5EAD5); assay: Inhibition of Geranylgeranyl transferase type I, an enzyme that recognizes CaaX sequences containing leucine as the terminal residue.; type: protein-complex assay
IC50 [1] [µM],IC90 [2] [µM],IC90 [3] [µM],IC50 [4] [µM],SMILES
> 100,–,–,–,COC(=O)c1ccc(Oc2ccc(NC(=O)[C@@H](N)CS)cc2)cc1
0.46,10,10,5,N[C@@H](CS)CNc1ccc(Oc2ccccc2)cc1
0.25,> 50,> 50,5.8,N[C@@H](CS)CNc1cccc(Oc2cccc(C(=O)O)c2)c1
6.9,–,–,–,N[C@@H](CS)C(=O)Nc1cccc(Oc2cccc(C(=O)O)c2)c1
3.15,–,–,–,N[C@@H](CS)CNc1ccc(Oc2ccc(C(=O)O)cc2)cc1
3.8,–,–,–,N[C@@H](CS)CNc1cccc(Oc2ccc(C(=O)O)cc2)c1
2.3,–,–,–,N[C@@H](CS)CNc1cccc(Oc2ccccc2)c1
> 100,–,–,–,N[C@@H](CS)C(=O)Nc1cccc(Oc2ccc(C(=O)O)cc2)c1
39,–,–,–,N[C@@H](CS)C(=O)Nc1ccc(Oc2ccc(C(=O)O)cc2)cc1
0.403,> 50,> 50,–,N[C@@H](CS)CNc1ccc(Oc2cccc(C(=O)O)c2)cc1
0.615,10,10,–,Cc1cccc(Oc2ccc(NC[C@@H](N)CS)cc2)c1
0.65,10,10,2.3,COC(=O)c1cccc(Oc2ccc(NC[C@@H](N)CS)cc2)c1
0.335,30,~30,–,N[C@@H](CS)CNc1ccc(Oc2cccc(CO)c2)cc1
45,–,–,–,COC(=O)c1cccc(Oc2ccc(NC(=O)[C@@H](N)CS)cc2)c1
16,–,–,–,N[C@@H](CS)C(=O)Nc1ccc(Oc2cccc(C(=O)O)c2)cc1
0.33,–,–,–,Cc1cccc(Oc2cccc(NC[C@@H](N)CS)c2)c1
45,–,–,–,COC(=O)c1cccc(Oc2cccc(NC(=O)[C@@H](N)CS)c2)c1
> 100,–,–,–,COC(=O)c1ccc(Oc2cccc(NC(=O)[C@@H](N)CS)c2)cc1
